This assay has as its system wrinkling on face. Description: Gel composition applied to wrinkled face twice daily (Example 1). The class given is in vivo, human. Conditions: person. From the text: A person is suffering from wrinkling on their face. A gel composition suitable for treatment of skin containing an effective amount of copper-zinc malonate active ingredient is routinely applied to their face twice daily.

As for copper-zinc malonate, the wrinkling on face result is reported as “reduced or eliminated”.

The values above are taken from patent publication US20070184017A1, “Anti-aging treatment using copper and zinc compositions” (priority 2006, published 2007).
